Results from ChEMBL document CHEMBL1201862, “PubChem BioAssay data set” (2004).
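Grown in 96-well plates, cells were treated for 48 hours with each compound at five concentrations. Insufficient inhibition: endpoint recorded as highest concentration tested. Abbreviation: GI50, concentration required for 50% inhibition of growth.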 Activity calls are given as the source filed them. No stated cut-off is given here; in the data, active = GI50 up to about 1.1 µM and inactive = higher.

Legend:
Assay in all cases: NCI-60 cell line screen, 48 h
SF-295 = system: SF-295
MCF7 = system: MCF7
SF-268 = system: SF-268
HCT-15 = system: HCT-15
SK-MEL-5 = system: SK-MEL-5
M14 = system: M14
U-251 = system: U-251
SNB-75 = system: SNB-75
UO-31 = system: UO-31
MOLT-4 = system: MOLT-4
OVCAR-8 = system: OVCAR-8
HCT-116 = system: HCT-116
PC-3 = system: PC-3
A549 = system: A549
K562 = system: K562
COLO 205 = system: COLO 205
SW-620 = system: SW-620
NCI/ADR-RES = system: NCI/ADR-RES
HL-60 = system: HL-60
HOP-92 = system: HOP-92

Compound: CC(C)(C)OC(=O)NC(Cc1ccccc1)OCc1ccccc1 (stereo not given)
- GI50 (SF-295): 16.6 µM (inactive)
- GI50 (MCF7): 19.7 µM (inactive)
- GI50 (SF-268): 18.4 µM (inactive)
- GI50 (HCT-15): 19.4 µM
- GI50 (SK-MEL-5): 15.5 µM (inactive)
- GI50 (M14): 17.9 µM (inactive)
- GI50 (U-251): > 10 µM (inactive)
- GI50 (SNB-75): 12.2 µM (inactive)
- GI50 (UO-31): 17.1 µM (inactive)
- GI50 (MOLT-4): 17.4 µM (inactive)
- GI50 (OVCAR-8): 20.1 µM (inactive)
- GI50 (HCT-116): 17.9 µM (inactive)
- GI50 (PC-3): 13.5 µM (inactive)
- GI50 (A549): 17.6 µM (inactive)
- GI50 (K562): 20.6 µM (inactive)
- GI50 (COLO 205): 35 µM (inactive)
- GI50 (SW-620): 17.2 µM (inactive)
- GI50 (NCI/ADR-RES): 26.7 µM (inactive)

Compound: COc1ccc(OC)c(CNc2ccc(O)c(C(=O)NCCc3ccc(F)cc3)c2)c1
- GI50 (SF-295): 13.7 µM (inactive)
- GI50 (MCF7): 10.8 µM (inactive)
- GI50 (SF-268): 11.6 µM (inactive)
- GI50 (HCT-15): 12.6 µM
- GI50 (SK-MEL-5): 7.19 µM (inactive)
- GI50 (M14): 10.4 µM (inactive)
- GI50 (U-251): 11.9 µM (inactive)
- GI50 (UO-31): 7.18 µM (inactive)
- GI50 (MOLT-4): 4.05 µM (inactive)
- GI50 (OVCAR-8): 16.2 µM (inactive)
- GI50 (HCT-116): 12.1 µM (inactive)
- GI50 (PC-3): 10.1 µM (inactive)
- GI50 (A549): 20.7 µM (inactive)
- GI50 (K562): 3.74 µM (inactive)
- GI50 (COLO 205): 18.6 µM (inactive)
- GI50 (SW-620): 15.7 µM (inactive)
- GI50 (NCI/ADR-RES): 10.1 µM (inactive)

Compound: O=C1/C(=C/c2ccc(Cl)cc2)CNC/C1=C\c1ccc(Cl)cc1
- GI50 (MCF7): 1.52 µM (inactive)
- GI50 (SF-268): 1.51 µM (inactive)
- GI50 (HCT-15): 1.16 µM
- GI50 (SK-MEL-5): 4.44 µM (inactive)
- GI50 (M14): 3.71 µM (inactive)
- GI50 (U-251): 0.782 µM (active)
- GI50 (SNB-75): 4.36 µM (inactive)
- GI50 (MOLT-4): 3.72 µM (inactive)
- GI50 (OVCAR-8): 2.04 µM (inactive)
- GI50 (HCT-116): 0.83 µM (active)
- GI50 (PC-3): 2.97 µM (inactive)
- GI50 (A549): 4.76 µM (inactive)
- GI50 (COLO 205): 2.14 µM (inactive)
- GI50 (SW-620): 0.638 µM (active)
- GI50 (NCI/ADR-RES): 2.91 µM (inactive)

Compound: COC(=O)C1(Cc2ccc3c(c2)CCC3)Cc2ccccc2C1
- GI50 (SF-295): 27.4 µM (inactive)
- GI50 (MCF7): 32.8 µM (inactive)
- GI50 (SF-268): 41.9 µM (inactive)
- GI50 (HCT-15): 25.8 µM
- GI50 (HL-60): 17 µM (inactive)
- GI50 (M14): 39.7 µM (inactive)
- GI50 (U-251): 42.3 µM (inactive)
- GI50 (SNB-75): 55.7 µM (inactive)
- GI50 (UO-31): 33.7 µM (inactive)
- GI50 (MOLT-4): 6.73 µM (inactive)
- GI50 (OVCAR-8): 50.6 µM (inactive)
- GI50 (HCT-116): 26.9 µM (inactive)
- GI50 (PC-3): 16.1 µM (inactive)
- GI50 (A549): 32.5 µM (inactive)
- GI50 (K562): 11.6 µM (inactive)
- GI50 (COLO 205): 25 µM (inactive)
- GI50 (SW-620): 21.9 µM (inactive)
- GI50 (NCI/ADR-RES): 44.1 µM (inactive)

Compound: C[C@]12CCC3c4ccc(O)cc4CC[C@H]3C1CC(=O)N(N)C2=O (stereo not given in full)
- GI50 (SF-295): > 100 µM (inactive)
- GI50 (MCF7): > 100 µM (inactive)
- GI50 (SF-268): > 100 µM (inactive)
- GI50 (SK-MEL-5): > 100 µM (inactive)
- GI50 (HL-60): > 100 µM (inactive)
- GI50 (M14): > 100 µM (inactive)
- GI50 (U-251): > 100 µM (inactive)
- GI50 (SNB-75): > 100 µM (inactive)
- GI50 (UO-31): > 100 µM (inactive)
- GI50 (MOLT-4): > 100 µM (inactive)
- GI50 (OVCAR-8): > 100 µM (inactive)
- GI50 (HCT-116): > 100 µM (inactive)
- GI50 (PC-3): > 100 µM (inactive)
- GI50 (A549): > 100 µM (inactive)
- GI50 (HOP-92): > 100 µM (inactive)
- GI50 (K562): > 100 µM (inactive)
- GI50 (COLO 205): > 100 µM (inactive)
- GI50 (SW-620): > 100 µM (inactive)

Compound: O=[N+]([O-])c1ccc(NN/N=N/c2ccc(-c3nc4ccccc4s3)cc2)c([N+](=O)[O-])c1
- GI50 (SF-295): 19.5 µM (inactive)
- GI50 (SF-268): 26.5 µM (inactive)
- GI50 (HCT-15): 22.7 µM
- GI50 (SK-MEL-5): 15.3 µM (inactive)
- GI50 (HL-60): 16 µM (inactive)
- GI50 (M14): 18.2 µM (inactive)
- GI50 (U-251): 23.4 µM (inactive)
- GI50 (SNB-75): 24.8 µM (inactive)
- GI50 (UO-31): 19.1 µM (inactive)
- GI50 (MOLT-4): 13.7 µM (inactive)
- GI50 (OVCAR-8): 24.3 µM (inactive)
- GI50 (HCT-116): 17.5 µM (inactive)
- GI50 (PC-3): 24.4 µM (inactive)
- GI50 (A549): 27.7 µM (inactive)
- GI50 (HOP-92): 21 µM (inactive)
- GI50 (K562): 22.7 µM (inactive)
- GI50 (COLO 205): 16.4 µM (inactive)
- GI50 (SW-620): 37.6 µM (inactive)
- GI50 (NCI/ADR-RES): 25.1 µM (inactive)
